Source: the supplement of paper PMC10307832

Each cell line was assayed with O=C(c1cc(Cc2n[nH]c(=O)c3ccccc23)ccc1F)N1CCN(C(=O)C2CC2)CC1 [Olaparib] (assay: relative viability (nuclei count vs DMSO), 5 days (fraction); higher = more cells survive). Settings: 0.253 µM.
Outline: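 Viability here means nuclei in treated wells divided by nuclei in vehicle wells, reported as the median across plates. Only plates with control CV below 25% and at least one doubling passed. Lung cancer cell lines in 1536-well plates were exposed to five √10-spaced library-drug doses for 5 days and counted from 4× Hoechst images in MetaXpress.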

| Cell Line | relative viability |
| --- | --- |
| HCC-366 | 0.988 |
| HCC-827 | 0.989 |
| HOP-62 | 0.984 |
| IA-LM | 0.889 |
| LC-2-ad | 0.89 |
| LCLC-97TM1 | 0.938 |
| LCLC-103H | 0.893 |
| LK-2 | 0.896 |
| LOU-NH91 | 0.943 |
| LU99A | 0.837 |
| LXF-289 | 0.979 |
| NCI-H23 | 0.84 |
| NCI-H322M | 0.888 |
| NCI-H358 | 0.894 |
| NCI-H441 | 1 |
| NCI-H460 | 0.915 |
| NCI-H520 | 0.856 |
| NCI-H522 | 1.01 |
| NCI-H596 | 0.86 |
| NCI-H647 | 0.862 |
| NCI-H650 | 0.872 |

| Cell Line | relative viability |
| --- | --- |
| NCI-H661 | 0.924 |
| NCI-H727 | 0.753 |
| NCI-H838 | 0.903 |
| NCI-H1299 | 0.981 |
| NCI-H1355 | 0.962 |
| NCI-H1395 | 0.806 |
| NCI-H1437 | 0.873 |
| NCI-H1563 | 0.902 |
| NCI-H1623 | 0.987 |
| NCI-H1648 | 0.908 |
| NCI-H1650 | 0.848 |
| NCI-H1651 | 0.902 |
| NCI-H1666 | 0.916 |
| NCI-H1703 | 0.826 |
| NCI-H1734 | 0.935 |
| NCI-H1755 | 0.89 |
| NCI-H1792 | 0.725 |
| NCI-H1915 | 0.892 |
| NCI-H1944 | 0.806 |
| NCI-H1975 | 0.919 |
| NCI-H1993 | 0.956 |

| Cell Line | relative viability |
| --- | --- |
| NCI-H2009 | 0.959 |
| NCI-H2023 | 0.944 |
| NCI-H2085 | 0.912 |
| NCI-H2087 | 0.929 |
| NCI-H2126 | 0.984 |
| NCI-H2170 | 0.875 |
| NCI-H2228 | 0.845 |
| NCI-H2342 | 0.951 |
| NCI-H2347 | 0.877 |
| NCI-H2405 | 0.884 |
| NCI-H3122 | 0.966 |
| PC-3 [JPC-3] | 0.907 |
| PC-14 | 0.849 |
| RERF-LC-KJ | 0.943 |
| SK-LU-1 | 0.906 |
| SK-MES-1 | 0.892 |
| SW 900 | 0.855 |
| SW 1573 | 0.896 |
| UMC-11 | 0.894 |

Same assay, conditions: 2.53 µM

| Cell Line | relative viability |
| --- | --- |
| 201T | 0.922 |
| A549 | 0.898 |
| A-427 | 0.884 |
| ABC-1 | 0.863 |
| BEN | 1.01 |
| CAL-12T | 0.976 |
| COR-L23 | 0.908 |
| COR-L 105 | 0.763 |
| Calu-6 | 0.937 |
| ChaGo-K-1 | 0.906 |
| EBC-1 | 0.98 |
| EKVX | 0.969 |
| EMC-BAC-2 | 1.05 |
| EPLC-272H | 0.968 |
| H3255 | 1.05 |
| HARA | 0.804 |
| HCC-15 | 0.999 |
| HCC-44 | 1.02 |
| HCC-78 | 0.953 |

| Cell Line | relative viability |
| --- | --- |
| HCC-366 | 0.943 |
| HCC-827 | 0.962 |
| HOP-62 | 0.997 |
| IA-LM | 0.958 |
| LC-2-ad | 0.943 |
| LCLC-97TM1 | 0.904 |
| LCLC-103H | 1 |
| LK-2 | 1.09 |
| LOU-NH91 | 1.01 |
| LU99A | 0.776 |
| LXF-289 | 1.1 |
| NCI-H23 | 0.804 |
| NCI-H322M | 0.98 |
| NCI-H358 | 0.934 |
| NCI-H441 | 0.942 |
| NCI-H460 | 0.895 |
| NCI-H520 | 0.85 |
| NCI-H522 | 0.973 |
| NCI-H596 | 0.919 |
